Measured values published in ChEMBL document CHEMBL3822432, “Antibacterial and anticancer activity of a series of novel peptides incorporating cyclic tetra-substituted C(α) amino acids” (Bioorg Med Chem, 2016).
Values after ≈ are worked out from the molar mass of the structure shown. Non-standard residues stand in square brackets, D forms with d. Residues, ends and D or L forms follow the SMILES beside them. ξ: configuration not given here. Ac6c = NC1(C(=O)O)CCCCC1; Ac5c = NC1(C(=O)O)CCCC1; ξOrn = NCCCC(N)C(=O)O; ξDab = NCCC(N)C(=O)O; ξDap = NCC(N)C(=O)O

Columns and labels:
[1] = system: Mycobacterium tuberculosis; assay: Antibacterial activity against ofloxacin-resistant Mycobacterium tuberculosis by two fold serial dilution method; type: functional
[2] = system: Mycobacterium tuberculosis; assay: Antibacterial activity against rifampin/isoniazid-resistant Mycobacterium tuberculosis CSU 45 SRI 1377 by two fold serial dilution method; type: functional

Question: With `CC(=O)NCC(=O)N[C@@H](Cc1ccccc1)C(=O)NC1(C(=O)NCC(=O)N2Cc3ccccc3CC2C(=O)N[C@H](CCCCN)C(=O)NC2(C(=O)NCC(=O)N3Cc4ccccc4CC3C(=O)N[C@H](Cc3ccccc3)C(=O)NC3(C(=O)NCC(=O)N4Cc5ccccc5CC4C(=O)NCC(=O)N[C@H](CCCCN)C(=O)N4Cc5ccccc5CC4C(=O)N[C@H](CCCCN)C(=O)N[C@H](CCCCN)C(=O)N[C@H](CCCCN)C(=O)N[C@H](CCCCN)C(N)=O)CCCCC3)CCCCC2)CCCCC1` (some centres undefined) as the compound, how does the MIC [1] read?
Answer: 20.7 µM (≈ 50 µg/mL)

Question: And the MIC [2]?
Answer: 20.7 µM (≈ 50 µg/mL)

Question: Which results are given for `CC(=O)NCC(=O)N[C@@H](Cc1ccccc1)C(=O)NC1(C(=O)NCC(=O)NC2(C(=O)N[C@@H](CCCCN)C(=O)NC3(C(=O)NCC(=O)NC4(C(=O)N[C@@H](Cc5ccccc5)C(=O)NC5(C(=O)NCC(=O)NC6(C(=O)NCC(=O)N[C@@H](CCCCN)C(=O)NC7(C(=O)N[C@@H](CCCCN)C(=O)N[C@@H](CCCCN)C(=O)N[C@@H](CCCCN)C(=O)N[C@@H](CCCCN)C(N)=O)CCCC7)CCCC6)CCCC5)CCCC4)CCCC3)CCCC2)CCCC1` (Ac-GF[Ac5c]G[Ac5c]K[Ac5c]G[Ac5c]F[Ac5c]G[Ac5c]GK[Ac5c]KKKK-NH2)?
Answer: MIC [1]: 22.9 µM (≈ 49.9 µg/mL); MIC [2]: 11.4 µM (≈ 25 µg/mL)

Question: What does the source list for `CC(=O)NCC(=O)N[C@@H](Cc1ccccc1)C(=O)NC1(C(=O)NCC(=O)NC2(C(=O)N[C@@H](CCCNC(=N)N)C(=O)NC3(C(=O)NCC(=O)NC4(C(=O)N[C@@H](Cc5ccccc5)C(=O)NC5(C(=O)NCC(=O)NC6(C(=O)NCC(=O)N[C@@H](CCCNC(=N)N)C(=O)NC7(C(=O)N[C@@H](CCCNC(=N)N)C(=O)N[C@@H](CCCNC(=N)N)C(=O)N[C@@H](CCCNC(=N)N)C(=O)N[C@@H](CCCNC(=N)N)C(N)=O)CCCC7)CCCC6)CCCC5)CCCC4)CCCC3)CCCC2)CCCC1` (Ac-GF[Ac5c]G[Ac5c]R[Ac5c]G[Ac5c]F[Ac5c]G[Ac5c]GR[Ac5c]RRRR-NH2)?
Answer: MIC [1]: > 43 µM; MIC [2]: > 43 µM

Question: Which MIC [1] does the source give for `CC(=O)NCC(=O)N[C@@H](Cc1ccccc1)C(=O)NC1(C(=O)NCC(=O)NC2(C(=O)N[C@@H](CCCCN)C(=O)NC3(C(=O)NCC(=O)NC4(C(=O)N[C@@H](Cc5ccccc5)C(=O)NC5(C(=O)NCC(=O)NC6(C(=O)NCC(=O)N[C@@H](CCCCN)C(=O)NC7(C(=O)N[C@@H](CCCCN)C(=O)N[C@@H](CCCCN)C(=O)N[C@@H](CCCCN)C(=O)N[C@@H](CCCCN)C(N)=O)CCCC7)CCCCC6)CCCC5)CCCCC4)CCCC3)CCCCC2)CCCC1` (Ac-GF[Ac5c]G[Ac6c]K[Ac5c]G[Ac6c]F[Ac5c]G[Ac6c]GK[Ac5c]KKKK-NH2) here?
Answer: 11.2 µM (≈ 25 µg/mL)

Question: What about the MIC [2] of the same compound?
Answer: 11.2 µM (≈ 25 µg/mL)

Question: `CC(=O)NCC(=O)N[C@@H](Cc1ccccc1)C(=O)NC1(C(=O)NCC(=O)NC2(C(=O)N[C@@H](CCCCN)C(=O)N[C@@H](CCCCN)C(=O)NC3(C(=O)NCC(=O)NC4(C(=O)N[C@@H](Cc5ccccc5)C(=O)NC5(C(=O)NCC(=O)NC6(C(=O)NCC(=O)N[C@@H](CCCCN)C(=O)N[C@@H](CCCCN)C(=O)NC7(C(=O)N[C@@H](CCCCN)C(=O)N[C@@H](CCCCN)C(=O)N[C@@H](CCCCN)C(=O)N[C@@H](CCCCN)C(N)=O)CCCCC7)CCCCC6)CCCCC5)CCCCC4)CCCCC3)CCCCC2)CCCCC1` (Ac-GF[Ac6c]G[Ac6c]KK[Ac6c]G[Ac6c]F[Ac6c]G[Ac6c]GKK[Ac6c]KKKK-NH2) was tested. Which MIC [1] did it give?
Answer: 4.92 µM (≈ 12.5 µg/mL)

Question: And the MIC [2]?
Answer: 4.92 µM (≈ 12.5 µg/mL)

Question: Which MIC [1] does the source give for `CC(=O)NCC(=O)N[C@@H](Cc1ccccc1)C(=O)NC1(C(=O)NCC(=O)NC2(C(=O)N[C@@H](CCCNC(=N)N)C(=O)NC3(C(=O)NCC(=O)NC4(C(=O)N[C@@H](Cc5ccccc5)C(=O)NC5(C(=O)NCC(=O)NC6(C(=O)NCC(=O)N[C@@H](CCCNC(=N)N)C(=O)NC7(C(=O)N[C@@H](CCCNC(=N)N)C(=O)N[C@@H](CCCNC(=N)N)C(=O)N[C@@H](CCCNC(=N)N)C(=O)N[C@@H](CCCNC(=N)N)C(N)=O)CCCCC7)CCCCC6)CCCCC5)CCCCC4)CCCCC3)CCCCC2)CCCCC1` (Ac-GF[Ac6c]G[Ac6c]R[Ac6c]G[Ac6c]F[Ac6c]G[Ac6c]GR[Ac6c]RRRR-NH2) here?
Answer: 40.8 µM (≈ 99.9 µg/mL)

Question: What about the MIC [2] of the same compound?
Answer: 10.2 µM (≈ 25 µg/mL)

Question: Which MIC [1] does the source give for `CC(=O)NCC(=O)N[C@@H](Cc1ccccc1)C(=O)NC1(C(=O)NCC(=O)NC2(C(=O)NC(CCN)C(=O)NC3(C(=O)NCC(=O)NC4(C(=O)N[C@@H](Cc5ccccc5)C(=O)NC5(C(=O)NCC(=O)NC6(C(=O)NCC(=O)NC(CCN)C(=O)NC7(C(=O)NC(CCN)C(=O)NC(CCN)C(=O)NC(CCN)C(=O)NC(CCN)C(N)=O)CCCCC7)CCCCC6)CCCCC5)CCCCC4)CCCCC3)CCCCC2)CCCCC1` (some centres undefined) (Ac-GF[Ac6c]G[Ac6c][ξDab][Ac6c]G[Ac6c]F[Ac6c]G[Ac6c]G[ξDab][Ac6c][ξDab][ξDab][ξDab][ξDab]-NH2) here?
Answer: 25.6 µM (≈ 54.3 µg/mL)

Question: What about the MIC [2] of the same compound?
Answer: 25.6 µM (≈ 54.3 µg/mL)

Question: How did the MIC [1] turn out when `CC(=O)NCC(=O)N[C@@H](Cc1ccccc1)C(=O)NC1(C(=O)NCC(=O)NC2(C(=O)NC(CN)C(=O)NC3(C(=O)NCC(=O)NC4(C(=O)N[C@@H](Cc5ccccc5)C(=O)NC5(C(=O)NCC(=O)NC6(C(=O)NCC(=O)NC(CN)C(=O)NC7(C(=O)NC(CN)C(=O)NC(CN)C(=O)NC(CN)C(=O)NC(CN)C(N)=O)CCCCC7)CCCCC6)CCCCC5)CCCCC4)CCCCC3)CCCCC2)CCCCC1` (some centres undefined) (Ac-GF[Ac6c]G[Ac6c][ξDap][Ac6c]G[Ac6c]F[Ac6c]G[Ac6c]G[ξDap][Ac6c][ξDap][ξDap][ξDap][ξDap]-NH2) was run?
Answer: 49.3 µM (≈ 100 µg/mL)

Question: And the MIC [2]?
Answer: 49.3 µM (≈ 100 µg/mL)

Question: For `CC(=O)NCC(=O)N[C@@H](Cc1ccccc1)C(=O)NC1(C(=O)NCC(=O)NC2(C(=O)NC(CCCN)C(=O)NC3(C(=O)NCC(=O)NC4(C(=O)N[C@@H](Cc5ccccc5)C(=O)NC5(C(=O)NCC(=O)NC6(C(=O)NCC(=O)NC(CCCN)C(=O)NC7(C(=O)NC(CCCN)C(=O)NC(CCCN)C(=O)NC(CCCN)C(=O)NC(CCCN)C(N)=O)CCCCC7)CCCCC6)CCCCC5)CCCCC4)CCCCC3)CCCCC2)CCCCC1` (some centres undefined) (Ac-GF[Ac6c]G[Ac6c][ξOrn][Ac6c]G[Ac6c]F[Ac6c]G[Ac6c]G[ξOrn][Ac6c][ξOrn][ξOrn][ξOrn][ξOrn]-NH2), which MIC [1] is on record?
Answer: 11.4 µM (≈ 25 µg/mL)

Question: What about the MIC [2] of the same compound?
Answer: 11.4 µM (≈ 25 µg/mL)

Question: Which results are given for `CC(=O)N[C@@H](CCCCN)C(=O)N[C@@H](CCCCN)C(=O)N[C@@H](CCCCN)C(=O)N[C@@H](CCCCN)C(=O)NCC(=O)N[C@@H](Cc1ccccc1)C(=O)NC1(C(=O)NCC(=O)NC2(C(=O)N[C@@H](CCCCN)C(=O)NC3(C(=O)NCC(=O)NC4(C(=O)N[C@@H](Cc5ccccc5)C(=O)NC5(C(=O)NCC(=O)NC6(C(=O)NCC(=O)N[C@@H](CCCCN)C(=O)NC7(C(N)=O)CCCCC7)CCCCC6)CCCCC5)CCCCC4)CCCCC3)CCCCC2)CCCCC1` (Ac-KKKKGF[Ac6c]G[Ac6c]K[Ac6c]G[Ac6c]F[Ac6c]G[Ac6c]GK[Ac6c]-NH2)?
Answer: MIC [1]: 5.47 µM (≈ 12.5 µg/mL); MIC [2]: 10.9 µM (≈ 25 µg/mL)

Question: What does the source list for `CC(=O)NCC(=O)N[C@H](Cc1ccccc1)C(=O)NC1(C(=O)NCC(=O)N2C(C(=O)N[C@@H](CCCCN)C(=O)NC3(C(=O)NCC(=O)N4C(C(=O)N[C@@H](Cc5ccccc5)C(=O)NC5(C(=O)NCC(=O)N6C(C(=O)NCC(=O)N[C@@H](CCCCN)C(=O)N7C(C(=O)N[C@H](CCCCN)C(=O)N[C@H](CCCCN)C(=O)N[C@H](CCCCN)C(=O)N[C@H](CCCCN)C(N)=O)CC8CCCCC87)CC7CCCCC76)CCCCC5)CC5CCCCC54)CCCCC3)CC3CCCCC32)CCCCC1` (stereo in doubt)?
Answer: MIC [1]: 20.9 µM (≈ 50 µg/mL); MIC [2]: 20.9 µM (≈ 50 µg/mL)

Question: Which results are given for `CN[C@@H]1[C@H](O[C@H]2[C@H](O[C@H]3[C@H](O)[C@@H](O)[C@H](N=C(N)N)[C@@H](O)[C@@H]3N=C(N)N)O[C@@H](C)[C@]2(O)C=O)O[C@@H](CO)[C@H](O)[C@H]1O` [STREPTOMYCIN]?
Answer: MIC [1]: 3.4 µM (≈ 1.98 µg/mL); MIC [2]: 0.8 µM (≈ 0.465 µg/mL)
